From US20110028507A1, “PYRIDINE DERIVATIVES AND METHODS OF USE THEREOF” (CRYSTALGENOMICS, INC., priority 2007, published 2011) come the findings set out here.

The IC50 is the point on the concentration scale where inhibition reaches its midpoint.

Read-outs that look alike come from different tables or passages of the source. A value given as a limit tells only on which side of the number the result lay.

The subject of one experiment is VEGF gene. Briefly: Cell-based luciferase reporter assay, pVEGF-Luc in HeLa cells. To be noted: Homo sapiens, compound 100 μM, 24 hrs. An excerpt: (§1) A luciferase assay was used to determine the changes in transcription amount of EPO and VEGF genes in cells. For the luciferase assay, a human HIF I a gene was first cloned into an animal cell expression vector, pFlag-CMV, to prepare a pFlag-HIF1α vector, and a hypoxia responsible element (HRE) sequence of an EPO gene 3′-enhancer domain was then cloned upstream of luciferase and TK promoter genes to prepare a pEPO HRE-Luc expression vector. Also, the promoter and luciferase domains of the VEGF gene were cloned into a pGL3-basic vector to prepare a pVEGF-Luc expression vector. HeLa cells were seed-cultured in a medium dish to grow to about 70-80% density one day before the HeLa cells were to be used. The HeLa cells were transfected with each of the prepared pEPO HRE-Luc and pVEGF-Luc expression vectors together with the pFlag-HIF1α and the Renilla luciferase expression vector (Promega, Madison, Wis., USA), by using LipofectAMINE PLUS™ (Invitrogen Life Technologies, Carlsbad Calif.). Three hours after the transfection, the medium was exchanged with DMEM, 1% Penicillin-Streptomycin in 10% FBS supplemented with serum. At this time, cultured cells were treated with each of the compounds at the concentrations indicated. Then, the cells were cultured for 24 hrs in an incubator that was maintained under conditions of 37° C., 20% O2 and 5% CO2. After culturing, cells were washed twice with cold phosphate buffer saline (PBS). Luciferase activity of the cells was measured using the dual luciferase assay system (Promega, Madison, Wis., USA).

In another experiment the target is T1, HIF-PH2 (EGLN1) (Homo sapiens, UniProt Q9GZT9).
T1 construct: made in house; host or cells: E. coli
Briefly: HIF-PH2 (PHD2) assay (fluorescence polarization method). The format is biochemical. Particulars: 200 nM HIF PH2 enzyme, 50 nM peptide substrate, 30° C. one hour; read-out: IC50 (HIF PH2 inhibition activity). As to the method:
HIF-PH2 (EGLN1) was expressed from E. coli cells, and purified using two process: an Ni-affinity chromatography column and a size-exclusion chromatography column.
To evaluate activities of an HIF PH2 inhibitor, HIF PH2 enzyme that was first overexpressed by genetic recombination and then purified was used to perform an enzyme reaction. […] At this time, 2 mM ascorbic acid and 5 mM ketoglutarate with 100 μM FeCl2 or without FeCl2, were used together with crude enzyme. A concentration of HIF PH2 inhibitor to be tested was treated and reacted at 30° C. for one hour. After the reaction, the resulting reaction product was boiled at 95° C. for one minute to suppress the enzyme reaction.
To determine whether prolyl hydroxylation occurs in the substrate as the secondary reaction, 500 nM GST-VBC (GST-VHL-Elongin B-Elongin C) protein was added to a reaction buffer (50 mM Tris-Cl (pH8.0), 120 mM NaCl, 0.5% Nonidet P40), and a GST-VBC binding reaction was carried out at room temperature for 30 minutes.
A fluorescence polarization value of a sample that is not treated with the HIF PH2 inhibitor was used as 100% control, and the activities of the HIF PH2 inhibitor were measured as percentage of the remaining HIF PH2 enzyme activity in samples treated with a concentration of the HIF PH2 inhibitor to be tested.
(In fluorescence polarisation assays a small probe gives low polarisation when free and higher when bound to something large.)

A further experiment relates to EPO gene. The experiment is described as follows: Cell-based luciferase reporter assay, pEPO HRE-Luc in HeLa cells. Particulars: Homo sapiens, compound 100 μM, 24 hrs, read-out: EPO fold induction over control.
From the text: as §1
For orientation: Reporter assays use an easily measured gene product as a stand-in for the process of interest.

The next experiment relates to EPO. The experiment is described as follows: Human EPO immunoassay (ELISA of Hep3B culture media). The class given is cell-based. To be noted: Hep3B cells, compound at 100 μM, 24-hour incubation; for EPO (mIU/ml): culture media ELISA; for fold induction at 100 µM: Homo sapiens, read-out: Fold Induction over control (EPO Induction). The protocol: Human cells derived from hepatocarcinoma (Hep3B) tissue (see, e.g., American Type Culture Collection, Manassas Va.) were grown at 37° C., 20% O2, 5% CO2 in DMEM (GIBCO)+10% FBS, 4.5 g/L D-Glucose; L-Glutamate and 110 mg/L sodium pyruvate. Ninety-six well plates were seeded with 4×10^4 HEP3B cells/well. The media was removed and replaced with DMEM+10% FBS. Compounds were added to wells at concentrations between 1 μM-100 μM for a 24-hour incubation. Cell culture media was harvested and EPO concentration was determined using a Human Erythropoietin Quantikine IVD ELISA Kit (R&D Systems®, Minneapolis, Minn.) following the manufacturer's instructions for the benchtop assay.
(In an ELISA, binding on a coated surface is turned into a signal by an enzyme label.)

[1] abbreviates: read-out: VEGF 1 fold induction over control.
Where [2] appears, read: read-out: VEGF 2 fold induction over control.

T1 sequence (Q9GZT9 whole entry, species assumed): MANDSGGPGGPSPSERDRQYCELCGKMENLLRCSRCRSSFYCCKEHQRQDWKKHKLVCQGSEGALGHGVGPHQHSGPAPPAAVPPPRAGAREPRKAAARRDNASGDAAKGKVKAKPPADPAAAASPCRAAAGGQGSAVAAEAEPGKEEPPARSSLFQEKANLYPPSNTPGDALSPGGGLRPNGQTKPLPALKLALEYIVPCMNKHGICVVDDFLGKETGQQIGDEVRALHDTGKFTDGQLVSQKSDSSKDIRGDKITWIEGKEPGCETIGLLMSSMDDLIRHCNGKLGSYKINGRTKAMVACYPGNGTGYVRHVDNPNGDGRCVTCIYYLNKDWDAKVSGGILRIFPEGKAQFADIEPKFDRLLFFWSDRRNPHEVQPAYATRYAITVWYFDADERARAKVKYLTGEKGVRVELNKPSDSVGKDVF

As to `O=C(NCc1ccccn1)c1nc(Br)c2c(sc3ccccc32)c1O` [1-Bromo-4-hydroxy-benzo[4,5]thieno[3,2-c]pyridine-3-carboxylic acid (pyridin-2-ylmethyl)-amide], the fold induction at 100 µM is 2.1 to 4 with VEGF gene (setting [1]) and under 2 in the experiment with EPO gene. The 50% inhibitory concentration (IC50) at HIF-PH2 (EGLN1) is under 25 µM.

Take `COc1ccc(Cn2nnnc2CNC(=O)c2nc(Br)c3c(sc4ccccc43)c2O)cc1` [1-Bromo-4-hydroxy-benzo[4,5]thieno[3,2-c]pyridine-3-carboxylic acid [1-(4-methoxy-benzyl)-1H-tetrazol-5-ylmethyl]-amide]: the fold induction at 100 µM in the experiment with VEGF gene (setting [1]) and in the experiment with EPO gene was under 2 each time. For the same compound, the IC50 at HIF-PH2 (EGLN1) is 26 to 100 µM.

As to `COc1ccc(Cn2nnc(CNC(=O)c3nc(Br)c4c(sc5ccccc54)c3O)n2)cc1` [1-Bromo-4-hydroxy-benzo[4,5]thieno[3,2-c]pyridine-3-carboxylic acid [2-(4-methoxy-benzyl)-2H-tetrazol-5-ylmethyl]-amide], the fold induction at 100 µM in the experiment with VEGF gene (setting [1]) was 2.1 to 4; in the experiment on EPO gene, under 2. Besides, the IC50 at HIF-PH2 (EGLN1) is under 25 µM.

In the case of `O=C(NCc1ccccc1)c1nc(Br)c2c(sc3ccccc32)c1O` [1-Bromo-4-hydroxy-benzo[4,5]thieno[3,2-c]pyridine-3-carboxylic acid benzylamide], the fold induction at 100 µM in the experiment on VEGF gene (setting [1]) and in the experiment on EPO gene was under 2 throughout. Moreover, on HIF-PH2 (EGLN1), the IC50 was in the range of 26 to 100 µM.

With `Nc1ccc2sc3c(O)c(C(=O)NCC(=O)O)nc(Cl)c3c2c1` [3-(Carboxymethyl-carbamoyl)-1-chloro-4-hydroxy-benzo[4,5]thieno[3,2-c]pyridin-8-yl-ammonium], the fold induction at 100 µM with VEGF gene (setting [1]) and in the experiment with EPO gene was 2.1 to 4 throughout. Further, the IC50 on HIF-PH2 (EGLN1) was under 25 µM.

Take `C[C@H](NC(=O)c1nc(Br)c2c(sc3ccccc32)c1O)C(=O)O` [(S)-2-[(1-Bromo-4-hydroxy-benzo[4,5]thieno[3,2-c]pyridine-3-carbonyl)-amino]-propionic acid]: the figures for the fold induction at 100 µM in the experiment with VEGF gene (setting [1]) and in the experiment on EPO gene were over 4.1 and 2.1 to 4, respectively. For the same compound, the IC50 on HIF-PH2 (EGLN1) is 26 to 100 µM.

On to `C[C@H](NC(=O)c1nc(Cl)c2c(sc3ccccc32)c1O)C(=O)O` [(S)-2-[(1-Chloro-4-hydroxy-benzo[4,5]thieno[3,2-c]pyridine-3-carbonyl)-amino]-propionic acid], for which the figures for the fold induction at 100 µM in the experiment on VEGF gene (setting [1]) and with EPO gene were over 4.1 and 2.1 to 4, respectively. Also, the half-inhibitory concentration (IC50) on HIF-PH2 (EGLN1) was 26 to 100 µM.

As for `O=C(O)CNC(=O)c1nc(Cl)c2c(sc3cccc(F)c32)c1O` [[(1-Chloro-9-fluoro-4-hydroxy-benzo[4,5]thieno[3,2-c]pyridine-3-carbonyl)-amino]-acetic acid], the fold induction at 100 µM in the experiment on VEGF gene (setting [2]) fell in the range of 2.1 to 4. Besides, on HIF-PH2 (EGLN1), the IC50 is under 25 µM. In the experiment with EPO, the “EPO (mIU/ml)” value is “K (K = 41-60 mIU/ml)” and the fold induction at 100 µM was over 71.

With `N#Cc1nc(C(=O)NCC(=O)O)c(O)c2sc3ccccc3c12` [[(1-Cyano-4-hydroxy-benzo[4,5]thieno[3,2-c]pyridine-3-carbonyl)-amino]-acetic acid], the fold induction at 100 µM with VEGF gene (setting [1]) was 2.1 to 4; in the experiment with EPO gene, under 2.

Turning to `CC(=O)Nc1ccc2sc3c(O)c(C(=O)NCC(=O)O)nc(Cl)c3c2c1` [[(8-Acetylamino-1-chloro-4-hydroxy-benzo[4,5]thieno[3,2-c]pyridine-3-carbonyl)-amino]-acetic acid], in the experiment with VEGF gene (setting [2]), the fold induction at 100 µM was under 2. Moreover, at HIF-PH2 (EGLN1), the IC50 is under 25 µM.

Regarding `O=C(O)CNC(=O)c1nc(Cl)c2c(sc3ccc(NS(=O)(=O)c4ccccc4)cc32)c1O` [[(8-Benzenesulfonylamino-1-chloro-4-hydroxy-benzo[4,5]thieno[3,2-c]pyridine-3-carbonyl)-amino]-acetic acid], the IC50 at HIF-PH2 (EGLN1) is under 25 µM. Further, in the experiment with EPO, the “EPO (mIU/ml)” value is reported as “I (I = 0-20 mIU/ml)” and the fold induction at 100 µM was under 20.
